The record followed here is ChEMBL document CHEMBL4364351, “PROTAC Degradation of Bromodomain for the Treatment of Hyperplasia and Cancer” (ACS Med Chem Lett, 2019).

Where only a bound is given, the exact number is not on record here.

In general, IC50 refers to the concentration that inhibits the measured activity by half.

Holding throughout (format): cell-based
For test [1], the target named is Protein cereblon/Androgen receptor (Homo sapiens) (UniProt P10275+Q96SW2). Description: Protac activity at CRBN/AR in human VCaP cells assessed as AR degradation at 0.0001 to 1 uM after 16 hrs by sandwich ELISA relative to control. (In general: An ELISA detects its analyte on a solid surface through an enzyme-linked reagent.)
Protein cereblon/Androgen receptor (Homo sapiens), sequence (P10275 whole entry, looked up): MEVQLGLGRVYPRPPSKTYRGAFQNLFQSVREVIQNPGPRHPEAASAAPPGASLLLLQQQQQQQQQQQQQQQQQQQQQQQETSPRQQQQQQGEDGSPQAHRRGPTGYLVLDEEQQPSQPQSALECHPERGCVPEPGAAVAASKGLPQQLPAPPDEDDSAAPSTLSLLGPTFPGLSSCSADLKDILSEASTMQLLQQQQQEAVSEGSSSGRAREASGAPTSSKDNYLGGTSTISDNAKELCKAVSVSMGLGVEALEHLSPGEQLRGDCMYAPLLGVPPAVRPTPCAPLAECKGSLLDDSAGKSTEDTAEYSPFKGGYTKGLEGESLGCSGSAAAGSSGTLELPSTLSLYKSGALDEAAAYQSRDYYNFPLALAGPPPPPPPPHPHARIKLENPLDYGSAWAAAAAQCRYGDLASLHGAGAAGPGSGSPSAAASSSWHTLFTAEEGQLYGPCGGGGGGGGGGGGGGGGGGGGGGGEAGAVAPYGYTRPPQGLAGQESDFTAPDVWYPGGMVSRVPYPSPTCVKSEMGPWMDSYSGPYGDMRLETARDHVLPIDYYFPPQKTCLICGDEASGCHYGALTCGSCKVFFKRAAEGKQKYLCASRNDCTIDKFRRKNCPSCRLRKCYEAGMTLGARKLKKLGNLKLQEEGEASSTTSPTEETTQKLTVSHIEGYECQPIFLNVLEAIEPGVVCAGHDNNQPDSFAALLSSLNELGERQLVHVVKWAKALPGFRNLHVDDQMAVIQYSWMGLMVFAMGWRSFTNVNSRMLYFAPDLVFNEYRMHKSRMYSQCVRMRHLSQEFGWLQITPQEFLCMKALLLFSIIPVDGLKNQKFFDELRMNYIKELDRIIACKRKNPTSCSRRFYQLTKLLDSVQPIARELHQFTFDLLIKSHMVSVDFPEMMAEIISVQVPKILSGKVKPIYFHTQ
Protein cereblon/Androgen receptor (Homo sapiens), sequence (Q96SW2 whole entry, looked up): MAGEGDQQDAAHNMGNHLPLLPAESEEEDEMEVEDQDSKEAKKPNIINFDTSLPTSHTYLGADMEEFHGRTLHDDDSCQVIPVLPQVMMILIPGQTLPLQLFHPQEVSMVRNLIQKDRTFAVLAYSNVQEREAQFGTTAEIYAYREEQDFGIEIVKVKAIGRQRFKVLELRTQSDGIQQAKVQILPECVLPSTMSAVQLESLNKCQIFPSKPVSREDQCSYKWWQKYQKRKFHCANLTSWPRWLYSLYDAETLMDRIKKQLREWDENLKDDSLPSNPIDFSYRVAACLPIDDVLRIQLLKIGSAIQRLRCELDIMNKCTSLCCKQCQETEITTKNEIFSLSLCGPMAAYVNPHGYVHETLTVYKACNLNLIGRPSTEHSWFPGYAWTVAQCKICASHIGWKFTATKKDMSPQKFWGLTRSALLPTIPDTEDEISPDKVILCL
Test [2] has as its target Protein cereblon/Steroid hormone receptor ERR1 (Homo sapiens) (UniProt P11474+Q96SW2). Nature of the test: Protac activity at CRBN/ERRalpha in human NAMALWA cells assessed as ERRalpha degradation at 0.1 to 1 uM after 16 hrs by Western blot analysis relative to control.
The target of test [3] is Protein cereblon/Serine/threonine-protein kinase TBK1 (Homo sapiens) (UniProt Q9UHD2+Q96SW2). Nature of the test: Protac activity at CRBN/TBK1 in human Panc02.13 cells assessed as TBK1 degradation at 0.1 to 1 uM after 16 hrs by Western blot analysis relative to control. A general note: In western blotting, separated proteins are transferred to a membrane and probed.
Protein cereblon/Serine/threonine-protein kinase TBK1 (Homo sapiens), sequence (Q96SW2 whole entry, looked up): as above
Protein cereblon/Serine/threonine-protein kinase TBK1 (Homo sapiens), sequence (Q9UHD2 whole entry, looked up): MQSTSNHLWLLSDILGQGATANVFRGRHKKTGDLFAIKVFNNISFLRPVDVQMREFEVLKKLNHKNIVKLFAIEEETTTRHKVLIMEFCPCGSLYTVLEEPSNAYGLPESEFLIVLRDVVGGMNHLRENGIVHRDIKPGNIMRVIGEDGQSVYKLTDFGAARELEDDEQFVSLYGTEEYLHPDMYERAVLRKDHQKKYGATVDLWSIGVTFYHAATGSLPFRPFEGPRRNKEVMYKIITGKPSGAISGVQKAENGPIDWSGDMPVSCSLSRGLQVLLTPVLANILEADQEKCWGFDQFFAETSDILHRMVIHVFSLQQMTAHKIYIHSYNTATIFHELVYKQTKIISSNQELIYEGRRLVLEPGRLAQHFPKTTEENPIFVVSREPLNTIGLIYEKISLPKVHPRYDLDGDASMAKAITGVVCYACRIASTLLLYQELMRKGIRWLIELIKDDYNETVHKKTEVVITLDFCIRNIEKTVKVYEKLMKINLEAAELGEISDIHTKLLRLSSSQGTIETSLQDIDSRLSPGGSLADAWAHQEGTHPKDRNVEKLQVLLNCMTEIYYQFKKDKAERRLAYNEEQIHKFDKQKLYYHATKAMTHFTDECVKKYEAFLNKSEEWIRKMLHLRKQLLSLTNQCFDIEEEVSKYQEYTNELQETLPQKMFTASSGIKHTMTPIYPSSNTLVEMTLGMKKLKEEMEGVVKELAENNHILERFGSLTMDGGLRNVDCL
Test [4] has as its target Protein cereblon/Bromodomain-containing protein 4 (Homo sapiens, UniProt O60885+Q96SW2). Description: Protac activity at CRBN/BRD4 in human 22Rv1 cells assessed as c-MYC degradation after 18 hrs by ELISA.

Protein cereblon/Bromodomain-containing protein 4, sequence (Q96SW2 whole entry, looked up, other chains not shown): as the sequence (Q96SW2 whole entry, looked up) above
Protein cereblon/Steroid hormone receptor ERR1 (Homo sapiens), sequence (P11474 whole entry, looked up): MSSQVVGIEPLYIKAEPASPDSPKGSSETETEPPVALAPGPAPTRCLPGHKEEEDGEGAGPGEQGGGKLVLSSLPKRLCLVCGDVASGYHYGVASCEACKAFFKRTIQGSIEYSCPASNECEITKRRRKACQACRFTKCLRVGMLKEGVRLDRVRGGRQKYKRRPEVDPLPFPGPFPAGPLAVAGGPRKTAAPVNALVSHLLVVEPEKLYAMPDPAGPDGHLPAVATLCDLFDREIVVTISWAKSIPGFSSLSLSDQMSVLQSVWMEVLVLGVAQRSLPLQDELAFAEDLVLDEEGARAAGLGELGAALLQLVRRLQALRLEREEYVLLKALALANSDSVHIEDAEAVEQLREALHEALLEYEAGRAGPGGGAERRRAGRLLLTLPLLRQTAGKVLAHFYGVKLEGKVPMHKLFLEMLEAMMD
Protein cereblon/Steroid hormone receptor ERR1 (Homo sapiens), sequence (Q96SW2 whole entry, looked up): as the sequence (Q96SW2 whole entry, looked up) above

Turning to `CC1(C)[C@H](NC(=O)c2ccc(OCCCCCOCCCNc3cccc4c3C(=O)N(C3CCC(=O)NC3=O)C4=O)cc2)C(C)(C)[C@H]1Oc1ccc(C#N)c(Cl)c1` (some centres not stated), the Activity in test [1] is > 50%.
Turning to `COc1cc(/C=C2\SC(=O)N(CCCOCCNc3cccc4c3C(=O)N(C3CCC(=O)NC3=O)C4=O)C2=O)ccc1Oc1ccc(C#N)cc1C(F)(F)F` (configuration not stated), the Activity in test [2] was > 50%.
Turning to `CN(CCCNc1nc(Nc2ccc(OCCOCCOCCOCCOCCOCCNc3cccc4c3C(=O)N(C3CCC(=O)NC3=O)C4=O)cc2)ncc1Br)C(=O)C1CCC1` (configuration not stated), in test [3], the Activity was > 50%.
On to `Cc1sc2c(c1C)C(c1ccc(Cl)cc1)=NC(CC(=O)NCCOCCNc1cccc3c1C(=O)N(C1CCC(=O)NC1=O)C3=O)c1nnc(C)n1-2` (configuration not stated), for which the IC50 in test [4] is < 50 nM.
For `Cc1sc2c(c1C)C(c1ccc(Cl)cc1)=NC(CC(=O)N[C@@H](C)c1ccc(OCCOCCNc3cccc4c3C(=O)N(C3CCC(=O)NC3=O)C4=O)cc1)c1nnc(C)n1-2` (some centres not stated), the IC50 in test [4] is < 50 nM.
In the case of `CN(CCCNc1nc(Nc2ccc(OCCOCCOCCOCCOCCNc3cccc4c3C(=O)N(C3CCC(=O)NC3=O)C4=O)cc2)ncc1Br)C(=O)C1CCC1` (configuration not stated), the Activity in test [3] is > 50%.
As for `CC1(C)C(=O)N(c2ccc(C#N)c(C(F)(F)F)c2)C(=S)N1c1ccc(-c2ccc(OCCCCCNc3cccc4c3C(=O)N(C3CCC(=O)NC3=O)C4=O)cc2)cc1` (configuration not stated), the Activity in test [1] was > 50%.
